The numbers were not newly measured in patent US9237750B2, “Ornidazole and related compounds for use as herbicides” (RAMOT AT TEL-AVIV UNIVERSITY LTD., priority 2012, dated 2016), which cites them from elsewhere.

The series concerns ferredoxin-linked NADP+ reduction. To be noted: photosystem II non-operative, ascorbate as electron source, broken spinach chloroplasts, DCPIP; cited from earlier work.

Regarding `Cc1ncc([N+](=O)[O-])n1CCO` [Metronidazole, 1-β-hydroxyethyl-2-methyl-5-nitroimidazole], the “inhibition of ferredoxin-linked NADP+ reduction” value is reported as “potent inhibitor”.
